Assay results: ChEMBL document CHEMBL3817791, “Discovery of 4-(4-aminopyrazolo[1,5-a][1,3,5]triazin-8-yl)benzamides as novel, highly potent and selective, orally bioavailable inhibitors of Tyrosine Threonine Kinase, TTK” (Bioorg Med Chem Lett, 2016)
pIC50: −log10 of the molar value.

Experiments:
[1] = Protein binding in mouse plasma; assay type: ADME, cell-free; conditions: read-out: PPB (converted)
[2] = Volume of distribution at steady state in Sprague-Dawley rat at 1 mg/ml, iv; assay type: ADME, organism-based; conditions: in vivo, read-out: Vdss
[3] = target: Aurora kinase B/Inner centromere protein (Homo sapiens, UniProt Q96GD4); assay: Inhibition of recombinant human His-tagged Aurora B/full length recombinant human N-terminal GST-tagged INCENP (821-end residues) expressed in baculovirus infected Sf21 cells by radiometric assay
Sequence of Aurora kinase B/Inner centromere protein (Q96GD4 whole entry): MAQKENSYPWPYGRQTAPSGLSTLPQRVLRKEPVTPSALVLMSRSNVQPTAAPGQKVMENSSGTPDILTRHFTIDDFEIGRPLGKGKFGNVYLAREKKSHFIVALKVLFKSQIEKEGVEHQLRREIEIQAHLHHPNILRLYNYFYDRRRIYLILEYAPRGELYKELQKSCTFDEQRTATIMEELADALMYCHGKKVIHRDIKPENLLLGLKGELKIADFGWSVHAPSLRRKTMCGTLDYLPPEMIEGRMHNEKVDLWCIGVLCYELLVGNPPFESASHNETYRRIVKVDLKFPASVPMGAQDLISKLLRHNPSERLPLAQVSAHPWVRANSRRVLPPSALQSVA
Sequence of Aurora kinase B/Inner centromere protein (Q9NQS7 whole entry, further chain): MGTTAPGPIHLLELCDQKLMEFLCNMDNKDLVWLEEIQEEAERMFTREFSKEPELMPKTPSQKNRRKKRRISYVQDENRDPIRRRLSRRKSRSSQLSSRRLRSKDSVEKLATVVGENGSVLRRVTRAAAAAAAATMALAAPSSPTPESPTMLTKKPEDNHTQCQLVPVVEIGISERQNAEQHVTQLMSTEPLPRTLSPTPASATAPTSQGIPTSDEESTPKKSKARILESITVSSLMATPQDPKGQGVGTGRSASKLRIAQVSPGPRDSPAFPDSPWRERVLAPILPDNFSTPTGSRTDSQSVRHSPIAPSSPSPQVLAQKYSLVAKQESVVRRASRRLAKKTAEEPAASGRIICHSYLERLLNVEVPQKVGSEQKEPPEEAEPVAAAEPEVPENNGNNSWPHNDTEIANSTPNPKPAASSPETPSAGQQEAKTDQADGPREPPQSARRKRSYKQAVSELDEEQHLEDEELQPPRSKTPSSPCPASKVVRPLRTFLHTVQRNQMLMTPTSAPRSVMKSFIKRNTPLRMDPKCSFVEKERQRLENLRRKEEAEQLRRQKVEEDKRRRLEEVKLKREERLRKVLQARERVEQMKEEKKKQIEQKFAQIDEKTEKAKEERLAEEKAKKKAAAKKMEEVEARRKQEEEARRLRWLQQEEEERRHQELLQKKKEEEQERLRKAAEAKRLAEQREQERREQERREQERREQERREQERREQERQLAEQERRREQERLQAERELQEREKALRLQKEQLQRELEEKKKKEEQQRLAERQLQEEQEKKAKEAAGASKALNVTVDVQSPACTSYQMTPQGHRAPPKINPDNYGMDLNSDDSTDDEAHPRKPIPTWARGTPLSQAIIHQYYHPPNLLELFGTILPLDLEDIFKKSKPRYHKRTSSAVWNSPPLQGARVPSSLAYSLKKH

[4] = target: T1, Serine/threonine-protein kinase PLK4 (Homo sapiens, UniProt O00444); assay: Inhibition of human PLK4 by radiometric assay
T1 sequence (O00444 whole entry): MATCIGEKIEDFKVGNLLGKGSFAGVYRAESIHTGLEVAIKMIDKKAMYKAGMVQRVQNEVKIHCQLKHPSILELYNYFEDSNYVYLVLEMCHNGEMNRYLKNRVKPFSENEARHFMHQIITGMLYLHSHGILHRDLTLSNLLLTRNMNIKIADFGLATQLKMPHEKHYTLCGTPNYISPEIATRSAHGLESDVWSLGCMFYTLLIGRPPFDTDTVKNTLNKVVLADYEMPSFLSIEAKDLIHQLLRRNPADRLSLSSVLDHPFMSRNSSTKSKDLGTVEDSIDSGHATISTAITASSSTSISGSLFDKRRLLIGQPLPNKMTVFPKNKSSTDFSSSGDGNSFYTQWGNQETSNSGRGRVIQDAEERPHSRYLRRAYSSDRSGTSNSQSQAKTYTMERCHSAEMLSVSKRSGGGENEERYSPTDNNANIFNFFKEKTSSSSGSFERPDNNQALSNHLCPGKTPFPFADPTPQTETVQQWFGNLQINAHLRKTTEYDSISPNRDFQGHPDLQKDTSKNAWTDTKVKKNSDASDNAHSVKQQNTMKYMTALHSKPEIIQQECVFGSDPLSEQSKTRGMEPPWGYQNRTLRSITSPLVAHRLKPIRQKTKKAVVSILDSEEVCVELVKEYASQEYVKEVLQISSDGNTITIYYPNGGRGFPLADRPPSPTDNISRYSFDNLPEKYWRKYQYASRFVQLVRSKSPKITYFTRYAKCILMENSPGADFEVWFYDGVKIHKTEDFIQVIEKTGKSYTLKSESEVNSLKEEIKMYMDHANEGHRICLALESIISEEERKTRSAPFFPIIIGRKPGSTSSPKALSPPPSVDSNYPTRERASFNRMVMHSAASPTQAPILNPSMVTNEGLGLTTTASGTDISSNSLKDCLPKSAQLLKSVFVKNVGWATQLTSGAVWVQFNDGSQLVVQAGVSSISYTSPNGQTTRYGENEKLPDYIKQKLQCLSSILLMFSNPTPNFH

[5] = Half life in Sprague-Dawley rat at 1 mg/ml, iv; assay type: ADME, organism-based; conditions: in vivo
[6] = Clearance in Sprague-Dawley rat at 1 mg/ml, iv; assay type: ADME, organism-based; conditions: in vivo
[7] = Half life in mouse microsomes; assay type: ADME, Microsome
[8] = AUC (0 to last) in CD-1 nude mouse at 70 mg/ml, po; assay type: ADME, organism-based; set-up: dose 70 mg/ml, time 0 - last, route oral; conditions: in vivo
[9] = Cmax in CD-1 nude mouse at 70 mg/ml, po; assay type: ADME, organism-based; set-up: dose 70 mg/ml, route oral; conditions: in vivo
[10] = AUC (0 to last) in CD-1 nude mouse at 10 mg/ml, po; assay type: ADME, organism-based; set-up: dose 10 mg/ml, route oral, time 0 - last; conditions: in vivo
[11] = Cmax in Sprague-Dawley rat at 1 mg/ml, iv; assay type: ADME, organism-based; set-up: dose 1 mg/ml, route intravenous; conditions: in vivo
MDA-MB-231 = assay: Antiproliferative activity against human MDA-MB-231 cells; assay type: functional
[12] = Cmax in CD-1 nude mouse at 100 mg/ml, po; assay type: ADME, organism-based; set-up: dose 100 mg/ml, route oral; conditions: in vivo
[13] = Cmax in CD-1 nude mouse at 55 mg/ml, po; assay type: ADME, organism-based; set-up: dose 55 mg/ml, route oral; conditions: in vivo
[14] = Antiproliferative activity against human PA1 cells; assay type: functional; conditions: PA-1
[15] = Oral bioavailability in Sprague-Dawley rat; assay type: ADME, organism-based; conditions: in vivo
[16] = Antiproliferative activity against human HCT116 cells; assay type: functional; conditions: HCT-116
[17] = Cmax in Sprague-Dawley rat at 5 mg/ml, iv; assay type: ADME, organism-based; set-up: dose 5 mg/ml, route intravenous; conditions: in vivo
Aurora kinase A = target: T2, Aurora kinase A (Homo sapiens, UniProt O14965); assay: Inhibition of full length recombinant human N-terminal His6-tagged Aurora A expressed in Sf21 cells by radiometric assay
T2 sequence (O14965 whole entry): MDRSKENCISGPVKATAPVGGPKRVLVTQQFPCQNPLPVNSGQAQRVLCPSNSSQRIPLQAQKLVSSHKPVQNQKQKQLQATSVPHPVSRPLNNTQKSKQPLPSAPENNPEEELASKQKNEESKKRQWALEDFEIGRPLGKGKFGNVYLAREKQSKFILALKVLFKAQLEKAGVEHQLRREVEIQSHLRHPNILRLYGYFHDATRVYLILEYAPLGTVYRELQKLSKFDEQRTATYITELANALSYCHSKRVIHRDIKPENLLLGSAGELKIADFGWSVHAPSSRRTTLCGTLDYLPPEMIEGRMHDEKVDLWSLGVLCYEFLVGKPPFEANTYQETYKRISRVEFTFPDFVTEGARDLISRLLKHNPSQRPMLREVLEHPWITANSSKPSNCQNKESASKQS

[18] = AUC (0 to last) in CD-1 nude mouse at 55 mg/ml, po; assay type: ADME, organism-based; set-up: dose 55 mg/ml, route oral, time 0 - last; conditions: in vivo
[19] = target: MAP kinase-activated protein kinase 2 (Homo sapiens) (UniProt P49137); assay: Inhibition of recombinant human N-terminal GST-tagged MAPKAPK2 (46 to 400 residues) expressed in Escherichia coli at 1 uM by radiometric assay relative to control
Sequence of MAP kinase-activated protein kinase 2 (Homo sapiens) (P49137 whole entry, looked up, the tested form may be a part): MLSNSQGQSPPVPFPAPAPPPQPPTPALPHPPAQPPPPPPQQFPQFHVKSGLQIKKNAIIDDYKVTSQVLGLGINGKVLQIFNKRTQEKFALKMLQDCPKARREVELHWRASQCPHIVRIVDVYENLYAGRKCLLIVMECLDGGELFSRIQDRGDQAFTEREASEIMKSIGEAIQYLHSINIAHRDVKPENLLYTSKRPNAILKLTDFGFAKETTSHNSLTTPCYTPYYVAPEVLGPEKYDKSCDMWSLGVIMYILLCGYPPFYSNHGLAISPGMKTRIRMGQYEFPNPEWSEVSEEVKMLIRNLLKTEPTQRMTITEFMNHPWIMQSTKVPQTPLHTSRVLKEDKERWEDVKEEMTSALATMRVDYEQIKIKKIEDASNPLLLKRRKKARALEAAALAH

fraction unbound [1]: 0.016 | Vd [2]: 2.8 L | pIC50 [3]: < 4.30 | pIC50 [4]: < 4.30 | half-life [5]: 1.53 h | clearance [6]: 19 mL/min/kg | half-life [7]: 0.767 h | AUC(0-t) [8]: 53000 ng·h/mL | Cmax [9]: 7700 ng/mL | AUC(0-t) [10]: 1530 ng·h/mL | Cmax [11]: 411 ng/mL | GI50 (MDA-MB-231): 32 nM | Cmax [12]: 2900 ng/mL | Cmax [13]: 7600 ng/mL | bioavailability [15]: 97% | Cmax [17]: 841 ng/mL | pIC50 (Aurora kinase A): < 4.30 | AUC(0-t) [18]: 38100 ng·h/mL | inhibition [19]: -8%
Compound: Cc1cc(-c2cnn3c(NCC4CCOCC4)nc(Oc4ccccc4)nc23)ccc1C(=O)NC1CC1
GI50 [14]: 30 nM | GI50 [16]: 13 nM
